Like-named read-outs stand apart in the source and are kept apart here. Each block holds one compound with its values, some of them ahead of it. Peptide text beside a SMILES is read from it.
How the values were obtained:
CD8+ cells [1] = assay: Intracellular IFN-γ assay by FACS (ICS) on lymphocytes of immunized mice; format: in vivo, BALB/c mice; conditions: for immunogenicity of WT counterpart (functional effector T cells): mice immunized with the WT counterpart of the named neo-epitope
Experimental: Intracellular IFN-γ assay by FACS and ELISPOT. Lymphocytes were incubated either with or without 1-10 μg/ml peptide. GolgiPlug (BD Biosciences, San Jose, Calif.) was added 1 h later. After incubation of 12 to 16 h, cells were stained for CD44 (clone IM7), CD4 (clone GK1.5) and CD8 (clone 53-6.7) (BD Biosciences, San Jose, Calif.), fixed and permeabilized using the Cytofix/Cytoperm™ kit (BD Biosciences, San Jose, Calif.), and stained for intracellular IFN-γ using Phycoerythrin-conjugated anti-mouse IFN-γ (clone XMG1.2, BD Biosciences, San Jose, Calif.). Cells were stained with 1 μl antibody/million cells in 50 μl staining buffer (PBS with 1% bovine serum albumin) and incubated for 20 min at 4° C. in the dark, or according to the manufacturer's instructions. Cells without peptide stimulation were used as a negative control, and the values for these controls was very close to the values seen with the negative control peptide. Typically, 95,000-129,000 lymphocytes (14,500-17,000 CD8+CD4− cells) were acquired. The background is consistently very low (10% of the signal).
(§1) All 18 peptides were used to immunize BALB/c mice. The draining lymph nodes (dLNs) of immunized mice were harvested one week after the single immunization, and the cells were stimulated in vitro for 16 h without any added peptide, the mutant peptide used for immunization, or the corresponding wild type peptide. The CD8+ cells were analyzed for activation (CD44+) and effector function (intracellular IFNγ+). (see Materials and Methods regarding the details of FACS analysis.) All possible patterns of immune-reactivity were observed (FIG. 3A): no immune response (12/18), a mutant peptide-specific, i.e. tumor-specific immune response (5/18), and a cross-reactive response between the mutant and corresponding wild type peptides (1/18).

CMS5 = assay: Tumor challenge / tumor rejection after peptide immunization, CMS5; format: in vivo, BALB/c mice
Experimental: Tumor challenge and representation of tumor growth. AUC as a tool to measure tumor growth has been described previously. Briefly, AUC was calculated by selecting “Curves & Regression” and then “Area under curve” from the “analyze” tool, using the Prism 5.0 (GraphPad Software, Inc., La Jolla, Calif.). Grubb' test was used to remove up to one outlier from each group.
Depletion of T cell subsets. Immunized mice were depleted of CD8 cells using anti-CD8 rat IgG2b monoclonal antibody 2.43), or depleted of CD4 cells using anti-CD4 rat IgG2b monoclonal antibody GK1.5. Depleting antibodies were given in PBS intraperitoneally two days before tumor challenge and every seven days for the duration of the experiment. First three injections of depleting antibodies were 250 μg per mouse and the later injections were 500 μg per mouse. For treatment with antagonistic antibodies, mice were treated with anti-CD25 antibody (clone PC61, 250 μg, two days before tumor challenge) or anti-CTLA-4 antibody (clone 9D9, 100 μg, seven days before and every three days after tumor challenge). The appropriate T cell sub-sets were depleted by over 95%.
Lack of immuno-protective activity of the strongest K^d-binding neo-epitopes. […]

CD8+ cells [2] = assay: IFNγ ELISPOT on CD8+ cells of immunized mice; format: in vivo, BALB/c mice; conditions: for ELISpot: mice immunized with mutant peptide; for CD8 T cell response of immunized mice: text, ELISPOT
Experimental: For the ELISPOT assays, the negative controls were CD8+ cells from immunized mice without peptide stimulation. […] The magnitude of responses was rated by mean spot numbers per million CD8+ cells: 5-10 (+); 11-20 (++); 21-50 (+++); 51-100(++++) and >100(+++++).
as §1

H-2 K^d = molecular target: T1, H-2 K^d (Mus musculus, UniProt P01902); assay: Binding assays: inhibition of binding of a radiolabeled standard peptide to purified MHC molecules
T1 sequence (P01902 22-368): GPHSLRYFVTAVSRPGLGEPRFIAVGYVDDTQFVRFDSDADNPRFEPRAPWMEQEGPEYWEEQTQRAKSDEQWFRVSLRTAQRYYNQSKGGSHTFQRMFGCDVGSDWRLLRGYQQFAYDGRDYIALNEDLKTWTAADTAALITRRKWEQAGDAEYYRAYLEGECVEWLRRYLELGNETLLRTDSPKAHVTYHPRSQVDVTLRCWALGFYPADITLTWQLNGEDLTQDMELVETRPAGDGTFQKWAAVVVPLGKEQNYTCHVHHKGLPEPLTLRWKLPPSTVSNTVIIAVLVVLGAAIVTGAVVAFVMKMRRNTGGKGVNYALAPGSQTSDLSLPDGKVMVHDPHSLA
T1 sequence (P01887 21-119 partner): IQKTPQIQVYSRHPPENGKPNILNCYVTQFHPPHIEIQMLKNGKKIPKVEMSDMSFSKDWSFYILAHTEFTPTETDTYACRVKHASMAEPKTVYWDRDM
Experimental: Binding assays. Binding of peptides to H-2 K^d was determined using quantitative assays based on the inhibition of binding of a radiolabeled standard peptide to purified MHC molecules essentially as described previously. […] Under the conditions utilized, where [label]<[MHC] and IC50≥[MHC], the measured IC50 values are reasonable approximations of the dissociation constant values.

Compound: CC(C)[C@H](NC(=O)[C@H](CO)NC(=O)[C@@H](NC(=O)[C@H](CCCCN)NC(=O)[C@H](C)NC(=O)[C@H](CCCCN)NC(=O)[C@H](CO)NC(=O)[C@@H](NC(=O)[C@H](Cc1ccccc1)NC(=O)[C@H](Cc1ccc(O)cc1)NC(=O)CN)C(C)C)[C@@H](C)O)C(=O)O (racemic) [Abr]
immunogenicity of WT counterpart (functional effector T cells) (CD8+ cells [1]): elicited functional effector T cells in vivo

Compound: CSCC[C@H](NC(=O)[C@@H]1CCCN1C(=O)[C@@H](NC(=O)[C@H](Cc1ccc(O)cc1)NC(=O)[C@@H](N)CC(=O)O)C(C)C)C(=O)N[C@@H](CCC(=O)O)C(=O)N[C@@H](CCC(N)=O)C(=O)N1CCC[C@H]1C(=O)N[C@@H](CCCNC(=N)N)C(=O)O [Alkbh6.2, D(y/D)VPMEQPR] (H-DYVPMEQPR-OH; N-terminus and C-terminus assumed)
protection from tumor growth / tumor rejection (CMS5): representative neo-epitopes that do
ELISpot (CD8+ cells [2]): ++ (10-20 spots/10^6 CD8 = ++)
CD8 T cell response of immunized mice (CD8+ cells [2]): modest CD8 T cell response
CD8 T cell response by intracellular cytokine assay (CD8+ cells [1]): un-detectable by the intracellular cytokine assay

Compound: CC(C)C[C@H](NC(=O)[C@@H]1CCCN1C(=O)[C@@H](NC(=O)[C@H](CCCNC(=N)N)NC(=O)[C@H](CCCCN)NC(=O)[C@H](CC(C)C)NC(=O)[C@H](CC(C)C)NC(=O)[C@@H]1CCCN1C(=O)[C@@H](NC(=O)[C@H](Cc1ccc(O)cc1)NC(=O)[C@@H](N)Cc1ccc(O)cc1)C(C)C)C(C)C)C(=O)O [Alms1.2] (H-YYVPLLKRVPL-OH)
IC50 (H-2 K^d): 1.48 µM
IC50 (H-2 K^d; mutant peptide, read-out: Measured IC50 for K^d (Mut/WT): Mut): 0.421 µM
ELISpot (CD8+ cells [2]): ++ (10-20 spots/10^6 CD8 = ++)
immunogenicity of WT counterpart (functional effector T cells) (CD8+ cells [1]): elicited functional effector T cells in vivo

Compound: CC[C@H](C)[C@H](NC(=O)[C@H](Cc1ccc(O)cc1)NC(=O)[C@@H](N)[C@@H](C)O)C(=O)N[C@@H](CCCNC(=N)N)C(=O)N1CCC[C@H]1C(=O)N[C@@H](Cc1ccccc1)C(=O)N[C@@H](CCC(=O)O)C(=O)N[C@H](C(=O)N[C@@H](CCCCN)C(=O)N[C@H](C(=O)O)C(C)C)[C@@H](C)O [Ccdc85c, TYIRP(f/L)ETKV] (H-TYIRPFETKV-OH)
immunogenicity of WT counterpart (functional effector T cells) (CD8+ cells [1]): elicited functional effector T cells in vivo

Compound: SIINFEKL (listed as Gallus gallus) [reference compound]
CD8 response after second immunization (Prime vs Boost) (CD8+ cells [1]; 100 μg peptide once or twice with a 29-day interval): amplified by a second immunization

IC50 (H-2 K^d; WT counterpart peptide, read-out: Measured IC50 for K^d (Mut/WT): WT): 7.05 µM
Compound: CSCC[C@H](NC(=O)[C@H](CC(C)C)NC(=O)CNC(=O)[C@@H]1CCCN1C(=O)[C@H](Cc1ccccc1)NC(=O)[C@@H](NC(=O)[C@@H](N)CCC(N)=O)C(C)C)C(=O)N[C@@H](CCC(=O)O)C(=O)N[C@@H](CC(C)C)C(=O)O [Atxn10.1] (H-QVFPGLMEL-OH; N-terminus and C-terminus assumed)
protection from tumor growth / tumor rejection (CMS5): representative neo-epitopes that do
ELISpot (CD8+ cells [2]): +++ (21-50 spots/10^6 CD8 = +++)
CD8 T cell response of immunized mice (CD8+ cells [2]): modest CD8 T cell response
CD8 T cell response by intracellular cytokine assay (CD8+ cells [1]): un-detectable by the intracellular cytokine assay

Compound: CC(C)C[C@H](NC(=O)[C@H](Cc1ccc(O)cc1)NC(=O)[C@@H](N)CC(C)C)C(=O)N[C@@H](CC(=O)O)C(=O)N[C@@H](CO)C(=O)N[C@@H](CCCCN)C(=O)N[C@@H](CO)C(=O)N[C@@H](CC(=O)O)C(=O)N[C@H](C(=O)N[C@H](C(=O)N[C@H](C(=O)O)C(C)C)[C@@H](C)O)[C@@H](C)O [Alms1.1]
immunogenicity of WT counterpart (functional effector T cells) (CD8+ cells [1]): elicited functional effector T cells in vivo

— patent US11338026B2, “Identification of immunologically protective neo-epitopes for the treatment of cancers” (THE UNIVERSITY OF CONNECTICUT, priority 2014, dated 2022)
